Measured values: patent US10174020B2, “Pyridone or pyrimidone derivative, preparation method therefor and application thereof” (Sichuan Haisco Pharmaceutical Co., Ltd., priority 2014, dated 2019)

Legend:
human plasma = assay: In vitro assay of the blood coagulation function of human plasma (APTT); assay type: biochemical; settings: concentration required to double the plasma APTT, read-out: aPTT EC2×
Experimental: 20 ml blood was taken by venipuncture from the ulnar vein of each of 20 healthy volunteers aged 25 to 35 years who had not taken any medicines within last one week, and was collected in a sodium citrate anticoagulation tube, with the ratio of anticoagulant to blood being 1:9 (v/v). Anticoagulation blood was taken and centrifuged at 200 g for 15 min, the supernatant therefrom was taken and centrifuged at 2000 g for 15 min, and then the supernatant therefrom was collected, well mixed, separated into 4 to 5 ml aliquots, and stored at −80° C. For APTT and PT assays, a plasma sample was taken and rapidly thawed in a 37° C. water bath, and 6 μl test compound working solution was added per 294 μl plasma, while 6 μl DMSO was added for the blank control. The compounds and plasma were well mixed, and assayed in a coagulometer. The concentration of the compounds (EC2×) required to double the plasma APTT was determined with origin 8.5, and the results are shown in Table 2.

[1] = biological target: human blood-coagulation factor XIa (Homo sapiens (Human), UniProt P03951); assay: In vitro inhibitory effect on the enzymatic activity of blood-coagulation factor XIa (S2366 substrate, absorbance at 405 nm); assay type: biochemical; settings: calculated from IC50 at substrate S2366 200 μM, Km=0.2 mM; IC50=Ki(1+[S]/Km)
Chain of human blood-coagulation factor XIa (P03951 388-625): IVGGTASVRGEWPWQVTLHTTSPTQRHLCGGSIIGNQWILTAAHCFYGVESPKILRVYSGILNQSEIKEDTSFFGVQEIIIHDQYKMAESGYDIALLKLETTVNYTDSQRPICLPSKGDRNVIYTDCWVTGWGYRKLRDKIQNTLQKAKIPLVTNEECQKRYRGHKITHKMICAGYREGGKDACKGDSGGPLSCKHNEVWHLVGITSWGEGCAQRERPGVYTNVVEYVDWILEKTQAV
Chain of human blood-coagulation factor XIa (P03951 19-387 partner): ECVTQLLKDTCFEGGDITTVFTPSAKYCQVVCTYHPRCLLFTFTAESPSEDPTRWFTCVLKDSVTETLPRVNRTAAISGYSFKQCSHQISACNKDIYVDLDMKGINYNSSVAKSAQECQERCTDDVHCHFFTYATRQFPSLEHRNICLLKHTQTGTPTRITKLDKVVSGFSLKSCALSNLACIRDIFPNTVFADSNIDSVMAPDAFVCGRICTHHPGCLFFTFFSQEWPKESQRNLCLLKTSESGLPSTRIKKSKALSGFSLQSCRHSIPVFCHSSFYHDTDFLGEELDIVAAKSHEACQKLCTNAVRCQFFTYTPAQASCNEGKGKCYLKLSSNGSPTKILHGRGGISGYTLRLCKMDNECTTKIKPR
Experimental: The following method was used to test the in vitro inhibitory effect of the compounds of the present invention on the activity of human blood-coagulation factor XIa, expressed by the Inhibition constant Ki.
Solution preparation: reaction buffer: 0.03M HEPES acid, 0.145M NaCl, 0.005 M KCl, 0.1% PEG-8000, pH=7.5;
HEPES 8.499 g, NaCl 8.47 g, KCl 0.3725, PEG 8000 1 g, plus ddH2O 800 ml; the pH was adjusted to […] with HCl, and the volume was metered to 1 L.
S2366 substrate stock solution (2 mM): a volume of substrate […] was dissolved in 23 ml sterile deionized water, aliquoted, and stored at 4° C. in darkness.
S2366 substrate working solution: the stock solution was diluted by 4 folds with the reaction buffer before use.
FXIa working solution: 1 μl FXIa stock solution was added to 10 ml reaction buffer and thoroughly mixed before use.
Method: 15 μl test sample working solution (15 μl DMSO for the control group) and 75 μl FXIa working solution were added to a 96-well plate, and incubated at room temperature for 15 min. Then 60 μl S2366 substrate working solution was added to initiate the reaction. The absorbance at 405 nm for the test compounds was continually assayed once every 3 minutes, and a ΔA-time curve was plotted to calculate the slope as the reaction rate. In accordance with the following equation, IC50 of each test sample when the substrate concentration was 200 μM was calculated with spss 16.0. Inhibition (I %) and Ki of the test samples were calculated in accordance with the follow equations, and the results are shown in Table 1. I %=(V0−Vi)/V0×100 where V0 is the reaction rate in the control wells, and Vi is the reaction rate in the test sample wells; IC50=Ki(1+[S]/Km) where Km=0.2 mM, and [S] is the substrate concentration=200 μM.

Row | Ki [1] [nM] | Compound | EC50 (human plasma) [nM]
1 | 249 | O=C(O)c1ccc(NC(=O)C2CCc3nc(-c4cc(Cl)ccc4-n4cnnn4)cc(=O)n32)cc1 (stereo not shown) [Compound 1, N-(4-carboxyphenyl)-2-(5-chloro-2-(1H-tetrazol-1-yl)phenyl)-4-oxo-4,6,7,8-tetrahydropyrrolo[1,2-a]pyrimidine-6-carboxamide] | –
2 | 14 | O=C(Cn1ccc(-c2cc(Cl)ccc2-n2cnnn2)cc1=O)Nc1ccc2[nH]c(C(=O)O)cc2c1 [Compound 6] | –
3 | 17 | O=C(O)c1cc2cc(NC(=O)C3CCc4nc(-c5cc(Cl)ccc5-n5cnnn5)cc(=O)n43)ccc2[nH]1 (stereo not shown) [Compound 4, N-(2-carboxyindol-5-yl)-2-(5-chloro-2-(1H-tetrazol-1-yl)phenyl)-4-oxo-4,6,7,8-tetrahydropyrrolo[1,2-a]pyrimidine-6-carboxamide] | 9500
4 | 4 | O=C(O)c1cc2cc(NC(=O)C(Cc3ccccc3)n3ccc(-c4cc(Cl)ccc4-n4cnnn4)cc3=O)ccc2[nH]1 (stereo not shown) [Compound 9, 5-[[2-[4-[5-chloro-2-(tetrazol-1-yl)phenyl]-2-oxo-1-pyridyl]-3-phenyl-propanoyl]amino]-1H-indole-2-carboxylic Acid] | 6400
5 | 68 | O=C(O)c1ccc(NC(=O)C2CCc3cc(-c4cc(Cl)ccc4-n4cnnn4)cc(=O)n32)cc1 (stereo not shown) [Compound 2, N-(4-carboxyphenyl)-7-(5-chloro-2-(1H-tetrazol-1-yl)phenyl)-5-oxo-1,2,3,5-tetrahydroindolizine-3-carboxamide] | –

More lines, now with the values behind:

Row | Compound | Ki [1] [nM] | EC50 (human plasma) [nM]
6 | O=C(O)c1cc2cc(NC(=O)C3CCc4cc(-c5cc(Cl)ccc5-n5cnnn5)cc(=O)n43)ccc2[nH]1 (stereo not shown) [Compound 3, N-(2-carboxyindol-5-yl)-7-(5-chloro-2-(1H-tetrazol-1-yl)phenyl)-5-oxo-1,2,3,5-tetrahydroindolizine-3-carboxamide] | 9 | 6100
7 | O=C(Cn1ccc(-c2cc(Cl)ccc2-n2cnnn2)cc1=O)Nc1ccc(C(=O)O)cc1 [Compound 5] | 146 | –
8 | O=C(O)c1cc2cc(NC(=O)[C@H]3CCc4cc(-c5cc(Cl)ccc5-n5cnnn5)cc(=O)n43)ccc2[nH]1 (single isomer, unassigned) [Compound 8-2] | 1030 | –
9 | O=C(O)c1cc2cc(NC(=O)[C@@H]3CCc4cc(-c5cc(Cl)ccc5-n5cnnn5)cc(=O)n43)ccc2[nH]1 (single isomer, unassigned) [Compound 8-1] | 2 | 2300
